# Reference: patent US9856218B2, “Inhibitors of PRMT5 and methods of their use” (Ohio State Innovation Foundation, priority 2013, dated 2018)
# Assays:
# [1] = MTD study, four mice each dose; assay type: in vivo; settings: mouse, in vivo, ip
# Method: (§1) Controlled shRNA depletion was evaluated in a murine lymphoma model (Eμ-BRD2 (Chung, J., et al. (2013) J. Biological Chemistry 288, 35534-35547)) and human xenograft model of glioblastoma (Yan, F., et al (2014) Cancer Research In Press). Referring to FIG. 62A, controlled expression of a PRMT5 shRNA (solid line) but not control shRNA (dashed line) leads to 100% survival of mice engrafted primary DLBCL tumor cells. […] The maximum tolerated dose (MTD, single dose) was identified at 50 mg/kg (see Table 11 below). A sub-toxic dose (25 mg/kg) was used to treat FcMCL mice. Control mice developed peripheral blood and lymph node tumor burden starting day 20 post-engraftment.
# [2] = 24 hr Quick MTD test, one mouse for each dose; assay type: in vivo
# Method: as §1
# [3] = tested on: Mantle cell lymphoma cell line Jeko; assay: Induction of apoptosis, FITC-Annexin V-PI flow cytometry; assay type: cell-based
# Method: Analysis by flow cytometry. Cell viability was also measured by flow cytometry at 24 and 48 hr using annexin-V-FITC and propidium iodide (PI) according to the manufacturer's instructions (BD Biosciences).
# (§2) Following the synthesis of 14 compounds, the anti-proliferation and pro-apoptotic activities of those compounds was evaluated in Mantle cell lymphoma cell line Jeko. Replicate cultures of Jeko were incubated in DMSO and the compounds for 24, 48 and 72 hours. FITC-Annexin V-PI stained flow cytometry was used to detect the apoptotic population of cells (Table 4).
# [4] = tested on: Mantle cell lymphoma cell line Jeko; assay: MTS anti-proliferation assay; assay type: cell-based
# Method: MTS proliferation assays were performed according the CellTiter 96™ Aqueous Cell Proliferation Assay Technical Bulletin (Promega, Madison, Wis.). 5×10^5 cells were plated in each well of a 96-well plate at 37° C. and assayed for proliferation at 24, 48, and 72 hr. Proliferation signal at 50% of control was used as IC50 for growth.
# as §2
# HNSCC tumor cells = assay: Proliferation of HNSCC tumor cells; assay type: cell-based; settings: FIG. 58
# [5] = target: T1, recombinant human PRMT5/MEP50 enzyme (Homo sapiens, UniProt O14744); assay: Epigenase PRMT methyltransferase (type II-specific) activity/inhibition assay kit; assay type: biochemical; settings: 25 ng recombinant human PRMT5/MEP50 per reaction; read-out: Inhibition of PRMT5 mediated H4R3 methylation (IC50)
# T1 construct: purchased BPS Bioscience
# T1 sequence (O14744 2-637 limits assumed): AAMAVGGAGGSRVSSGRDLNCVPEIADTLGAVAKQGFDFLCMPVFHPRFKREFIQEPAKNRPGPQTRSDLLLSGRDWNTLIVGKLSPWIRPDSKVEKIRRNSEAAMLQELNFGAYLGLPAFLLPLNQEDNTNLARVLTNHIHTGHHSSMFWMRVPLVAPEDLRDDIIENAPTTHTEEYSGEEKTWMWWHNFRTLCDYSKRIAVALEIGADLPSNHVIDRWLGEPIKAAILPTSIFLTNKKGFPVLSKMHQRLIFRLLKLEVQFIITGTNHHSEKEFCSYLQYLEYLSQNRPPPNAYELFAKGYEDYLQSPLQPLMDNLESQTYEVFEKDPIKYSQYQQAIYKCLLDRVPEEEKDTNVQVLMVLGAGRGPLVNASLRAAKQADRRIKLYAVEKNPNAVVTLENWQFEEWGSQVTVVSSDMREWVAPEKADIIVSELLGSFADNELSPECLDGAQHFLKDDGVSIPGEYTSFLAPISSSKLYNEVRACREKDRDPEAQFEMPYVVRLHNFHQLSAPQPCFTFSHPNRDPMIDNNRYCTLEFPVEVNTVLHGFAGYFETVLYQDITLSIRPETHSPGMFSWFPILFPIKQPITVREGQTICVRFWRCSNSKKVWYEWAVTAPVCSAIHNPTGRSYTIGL
# T1 sequence (Q9BQA1 2-342 partner limits assumed): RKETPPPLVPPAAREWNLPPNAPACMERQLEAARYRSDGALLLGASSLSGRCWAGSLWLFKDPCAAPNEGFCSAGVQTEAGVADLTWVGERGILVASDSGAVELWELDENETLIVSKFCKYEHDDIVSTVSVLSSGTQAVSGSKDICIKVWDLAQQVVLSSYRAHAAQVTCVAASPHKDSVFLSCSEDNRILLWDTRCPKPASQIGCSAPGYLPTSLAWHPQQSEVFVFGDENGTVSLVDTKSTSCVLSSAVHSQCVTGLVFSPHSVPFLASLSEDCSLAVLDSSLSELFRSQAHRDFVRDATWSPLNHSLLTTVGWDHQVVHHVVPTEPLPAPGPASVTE
# Method: The inhibition of PRMT5 mediated H4R3 methylation result was obtained with Epigenase™ PRMT methyltransferase (type II-specific) activity/inhibition assay kit. 25 ng recombinant human PRMT5/MEP50 enzyme (purchased from BPS Bioscience) was used in each reaction.
# [6] = In vivo pharmacokinetics, plasma concentration; design: species or system Mouse; settings: mouse, in vivo
# Description: Pharmacokinetic data of compounds HLCL-7, HLCL-61, and HLCL-66 taken from an in vivo study is illustrated in Table 10. […]
# OG2 cells = assay: Viability/apoptosis assay alone and in combination with temozolomide; assay type: cell-based; settings: in combination with TMZ, FIG. 13
# Description: OG2 cells are tumor cells derived from glioblastoma primary tumors.
# CAL-27 cell line = assay: Migration scratch assay; assay type: cell-based; settings: CAL-27, 16 h and 24 h
# Method: Referring to FIG. 60, PRMT5 and squamous cell carcinoma migration in response to HLCL-66 is illustrated. Migration was performed as previously described (Nowicki, M. O., et al. (2008) Neuro. Oncol. 10, 690-699). Briefly, a migration scratch assay was performed with CAL-27 cell line treated with HLCL-66 for 0, 16, and 24 hours.
# multiple cell lines = assay: Proliferation of multiple cell lines (FIG. 59); assay type: cell-based; settings: FIG. 59A-E
# Method: Proliferation of multiple cell lines was evaluated for CMPD 5, CMPD 7, HLCL61, HLCL-65, and HLCL-66 (FIG. 59A-E).
compound,measurement,setting,value
CCn1c2ccccc2c2cc(NC(=N)Nc3ccc(S(C)(=O)=O)cc3)ccc21 [HLCL-7],survival 24 hr after dosing,"[1]; 5 mg/kg, 24 h",Alive 24 hr after
same,condition within 1 hr after dosing (alive but slow moving),[1]; 50 mg/kg,Alive within 1 hr after
same,mice lethargic and slow moving 24 hr after dosing,"[1]; 50 mg/kg, 24 h","after dosing, 1 out 4"
same,survival 24 hr after dosing,"[1]; 50 mg/kg, 24 h",moving. Alive 24 hr
same,survival after dosing,"[2]; IV-2.5 mg/kg, one mouse",Alive 24 hr after
same,survival after dosing,"[2]; mouse, in vivo, ip, 50 mg/kg, 24 h",Alive 24 hr after
same,survival after dosing,"[2]; mouse, in vivo, ip, 100 mg/kg, 24 h",Dead within 1 hr after
same,survival after dosing,"[2]; mouse, in vivo, ip, 200 mg/kg, 24 h",Dead within 1 hr after
same,survival after dosing,"[2]; mouse, in vivo, iv, 5 mg/kg, 24 h",Alive 24 hr after
same,clinical signs after dosing (slow moving),"[2]; mouse, in vivo, iv, 10 mg/kg",dosing but slow
same,survival after dosing,"[2]; mouse, in vivo, iv, 10 mg/kg, 24 h",Alive 24 hr after
same,survival after dosing,"[2]; mouse, in vivo, iv, 20 mg/kg",Dead instantly after
same,EC50,[3]; 24 h,32 µM
same,EC50,[3]; 48 h,26 µM
same,IC50,[4]; 24 h incubation,32 µM
same,IC50,[4]; 48 h incubation,26 µM
same,IC50,[4]; 72 h incubation,13 µM
same,proliferation of HNSCC tumor cells,HNSCC tumor cells,inhibit proliferation in a dose-dependent manner
same,IC50,[5],7 µM
same,concentration at 0.08 h,"[6]; ip, 25 mg/kg",7570 nM
same,concentration at 0.17 h,"[6]; ip, 25 mg/kg",886 nM
same,concentration at 0.33 h,"[6]; ip, 25 mg/kg",7540 nM
same,concentration at 0.5 h,"[6]; ip, 25 mg/kg",7480 nM
same,concentration at 1 h,"[6]; ip, 25 mg/kg",4910 nM
same,concentration at 2 h,"[6]; ip, 25 mg/kg",7680 nM
same,concentration at 4 h,"[6]; ip, 25 mg/kg",4130 nM
same,concentration at 6 h,"[6]; ip, 25 mg/kg",2540 nM
same,concentration at 8 h,"[6]; ip, 25 mg/kg",2790 nM
same,concentration at 24 h,"[6]; ip, 25 mg/kg",1.35 nM
same,concentration at 0.08 h,"[6]; iv, 5 mg/kg",3240 nM
same,concentration at 0.17 h,"[6]; iv, 5 mg/kg",3070 nM
same,concentration at 0.33 h,"[6]; iv, 5 mg/kg",1500 nM
same,concentration at 0.5 h,"[6]; iv, 5 mg/kg",911 nM
same,concentration at 1 h,"[6]; iv, 5 mg/kg",601 nM
same,concentration at 2 h,"[6]; iv, 5 mg/kg",507 nM
same,concentration at 4 h,"[6]; iv, 5 mg/kg",200 nM
same,concentration at 6 h,"[6]; iv, 5 mg/kg",76.2 nM
same,concentration at 8 h,"[6]; iv, 5 mg/kg",77.1 nM
same,concentration at 24 h,"[6]; iv, 5 mg/kg",1.38 nM
CCn1c2ccccc2c2cc(/C=C/C(=O)c3ccccc3OC)ccc21 [HLCL-66],induction of apoptosis in combination,OG2 cells,synergistic
same,gap closure (migration),CAL-27 cell line,affected in a dose-response fashion
same,"potency, proliferation of multiple cell lines",multiple cell lines,low micromolar range
same,EC50,[3]; 24 h,1.4 µM
same,EC50,[3]; 48 h,0.5 µM
same,IC50,[4]; 24 h incubation,1.9 µM
same,IC50,[4]; 48 h incubation,0.4 µM
same,IC50,[4]; 72 h incubation,0.2 µM
same,IC50,[5],26 µM
